Two molecules from paper PMC7618597, “Dual Nurr1/RXR agonism of valerenic acid and synthetic mimetics enables dimer-selective Nurr1 modulation” (ACS medicinal chemistry letters, 2025) can be followed below.

Broadly, the pKd is the Kd on a negative log10 scale, so that one unit is a factor of ten.

pKd: −log10 of the molar value.

The target of one assay is T1, Nurr1 LBD (Homo sapiens, UniProt P43354).
T1 construct: made in house
In words: Isothermal titration calorimetry, recombinant Nurr1 LBD. Type of assay: binding. The conditions noted are these: ITC. On the procedure:
Isothermal titration calorimetry. ITC experiments for ligand binding to Nurr1 and RXR were conducted on an Affinity ITC instrument (TA Instruments, New Castle, DE) at 25 °C with a stirring rate of 75 rpm using recombinantly expressed ligand binding domain proteins as described previously5,6. The respective LBD protein (12–25 μM) in buffer (20 mM Tris pH 7.5, 100 mM NaCl, 5% glycerol) containing 2-4% DMSO was titrated with the test compounds (100-150 μM in the same buffer containing 2-4% DMSO) in 21–26 injections (1 × 1 μL and 20 × 4 to 25 × 4 μL) with an injection interval of 120 s. As control experiments, the test compounds were titrated to the buffer, and the buffer was titrated to the protein under otherwise identical conditions. The heat rates of the compound-Nurr1 LBD titrations were analyzed using NanoAnalyze software (TA Instruments, New Castle, DE) with an independent binding model.
A general note: Isothermal titration calorimetry measures the heat released or taken up as one component is titrated into another.

The target in the next assay is Nurr1:RXR heterodimer (Homo sapiens, UniProt P19793+P43354). Kind of assay: Nurr1 LBD:RXRα LBD heterodimerization assay (HTRF). Type of assay: biochemical. As to conditions: 30 μM, Tb3+-cryptate Nurr1 LBD and sGFP-RXRα LBD. On the procedure: To determine the molecular response of the Nurr1:RXR heterodimer on dual agonist binding, we employed homogenous time-resolved fluorescence resonance energy transfer (HTRF) based assays with labeled Nurr1 and RXR LBD proteins. Tb^3+-cryptate as streptavidin conjugate served as FRET donor and was coupled to biotinylated proteins. sGFP fusion proteins of the receptors of interest were used as FRET acceptors. Ligand effects on dimer formation were determined by titrating the sGFP-labeled dimer partner with a fixed concentration of the Tb^3+-labeled counterpart. […] The same effect was also observable for the natural product 1 (Figure S3).
Nurr1:RXR heterodimer, sequence (P43354 360-595 limits assumed): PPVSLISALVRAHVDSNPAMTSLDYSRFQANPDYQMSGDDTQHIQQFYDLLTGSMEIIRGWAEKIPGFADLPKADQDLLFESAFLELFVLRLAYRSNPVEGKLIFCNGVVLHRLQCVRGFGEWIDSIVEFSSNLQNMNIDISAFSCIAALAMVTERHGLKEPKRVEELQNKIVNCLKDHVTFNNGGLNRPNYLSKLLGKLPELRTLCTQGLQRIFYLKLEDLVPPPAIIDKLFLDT
Nurr1:RXR heterodimer, sequence (P19793 227-458 limits assumed): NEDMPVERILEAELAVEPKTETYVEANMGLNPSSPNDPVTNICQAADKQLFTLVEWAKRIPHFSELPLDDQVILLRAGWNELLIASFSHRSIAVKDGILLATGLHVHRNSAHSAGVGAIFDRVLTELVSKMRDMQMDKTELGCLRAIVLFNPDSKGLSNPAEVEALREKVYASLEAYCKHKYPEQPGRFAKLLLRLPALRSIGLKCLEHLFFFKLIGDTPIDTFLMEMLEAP
Nurr1 dimerization assays (HTRF). Modulation of Nurr1 LBD homodimerization and heterodimerization of the LDBs of Nurr1 and RXRα was investigated by HTRF as reported previously4. Nurr1 LBD or RXRα LBD proteins labeled with sGFP were titrated against a fixed concentration of Tb3+-cryptate as streptavidin conjugate (Tb-SA) (610SATLF, Revvity) coupled to biotinylated Nurr1 LBD protein in the presence of test compounds at 30 µM or absence of compound as a negative control (apo). Assay solutions were prepared in buffer containing 25 mM HEPES pH 7.5, 150 mM KF, 5% (m/v) glycerol, 5 mM DTT, 0.1% (m/v) CHAPS and 1%
DMSO. The FRET donor complex was formed from biotinylated Nurr1 LBD (final concentration 0.188 nM) and Tb-SA (0.375 nM) and was kept constant. For the homodimerization assay, the FRET acceptor consisted of sGFP-Nurr1 LBD, which was titrated from 0.5 µM, while free sGFP was added to keep the total GFP content stable at 0.5 µM. […] Samples were equilibrated at room temperature for 2 h and fluorescence intensities (FI) after excitation at 340 nm were recorded at 520 nm for sGFP acceptor fluorescence and at 620 for Tb-SA donor fluorescence on a SPARK plate reader (Tecan Group Ltd.). […]
Evaluation of Nurr1-regulated gene expression. […] RNA concentration and purity were assessed using a NanoDrop One UV-vis spectrophotometer (Thermo Fisher Scientific) at 260/280 nm. […]

T1 sequence (P43354 360-595 limits assumed): as the sequence (P43354 360-595 limits assumed) above

On to `Cc1c(C)n(-c2ccc(CC(=O)O)cc2)c2ccc(F)cc12` [compound 3], for which the pKd at Nurr1 LBD was 6.22. Besides, the “Nurr1:RXR heterodimer formation” value on Nurr1:RXR heterodimer was “left the dimer intact”.
Consider `Cc1c2c(n(-c3ccc(CC(=O)O)cc3)c1C)CCC(F)(F)C2` [compound 2], for which, at Nurr1 LBD, the pKd was 6.22. Also, the “Nurr1:RXR heterodimer formation” value on Nurr1:RXR heterodimer is “left the dimer intact”.
